According to the supplement of paper PMC10307832:

How the values were obtained:
Assay in all cases: relative viability (nuclei count vs DMSO), 5 days (fraction); higher = more cells survive
[1] = compound: CCN(CC)CCNC(=O)c1c(C)[nH]c(/C=C2\C(=O)Nc3ccc(F)cc32)c1C [Sunitinib] + CC(=O)c1c(C)c2cnc(Nc3ccc(N4CCNCC4)cn3)nc2n(C2CCCC2)c1=O [Palbociclib] (partner 0.5 µM)
Procedure, shortened: (§1)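 A single step with final 0.05% Triton X-100, 1% formaldehyde and 1 ug/ml Hoechst fixed the cells and stained nuclei 5 days after treatment. Lung cancer cell lines in 1536-well plates had been treated by pin tool the day after seeding with one drug alone or a fixed anchor-drug dose plus five library-drug doses (not always all listed) in √10 steps, and nuclei were counted on 4× images. Relative viability is the ratio of nuclei in treated wells to nuclei in vehicle wells, taken as the median of duplicate plates.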

[2] = compound: CCN(CC)CCNC(=O)c1c(C)[nH]c(/C=C2\C(=O)Nc3ccc(F)cc32)c1C [Sunitinib] + CS(=O)(=O)N1CCN(Cc2cc3nc(-c4cccc5[nH]ncc45)nc(N4CCOCC4)c3s2)CC1 [Pictilisib] (partner 1 µM)
Procedure, shortened: as §1

[3] = compound: CCN(CC)CCNC(=O)c1c(C)[nH]c(/C=C2\C(=O)Nc3ccc(F)cc32)c1C [Sunitinib] + COc1cc2c(Oc3ccc(NC(=O)C4(C(=O)Nc5ccc(F)cc5)CC4)cc3F)ccnc2cc1OCCCN1CCOCC1 [Foretinib] (partner 0.25 µM)
Procedure, shortened: as §1

[4] = compound: CCN(CC)CCNC(=O)c1c(C)[nH]c(/C=C2\C(=O)Nc3ccc(F)cc32)c1C [Sunitinib] + CC(C)C[C@H](NC(=O)[C@H](Cc1ccccc1)NC(=O)c1cnccn1)B(O)O [Bortezomib] (partner 0.002 µM)
Procedure, shortened: as §1

Cell Line | relative viability ([1]; first compound 0.02 µM) | relative viability ([1]; first compound 0.06325 µM) | relative viability ([1]; first compound 0.2 µM) | relative viability ([1]; first compound 0.6325 µM) | relative viability ([1]; first compound 2 µM) | relative viability ([2]; first compound 0.02 µM) | relative viability ([2]; first compound 0.06325 µM) | relative viability ([2]; first compound 0.2 µM) | relative viability ([2]; first compound 0.6325 µM) | relative viability ([2]; first compound 2 µM) | relative viability ([3]; first compound 0.02 µM) | relative viability ([3]; first compound 0.06325 µM) | relative viability ([3]; first compound 0.2 µM) | relative viability ([3]; first compound 0.6325 µM) | relative viability ([3]; first compound 2 µM) | relative viability ([4]; first compound 0.02 µM) | relative viability ([4]; first compound 0.06325 µM) | relative viability ([4]; first compound 0.2 µM) | relative viability ([4]; first compound 0.6325 µM) | relative viability ([4]; first compound 2 µM)
NCI-H1437 | 0.294 | 0.347 | 0.305 | 0.346 | 0.329 | 0.376 | 0.559 | 0.427 | 0.456 | 0.434 | 1.24 | 1.25 | 1.28 | 1.22 | 1.32 | 0.567 | 0.643 | 0.514 | 0.494 | 0.551
NCI-H1650 | 0.359 | 0.472 | 0.384 | 0.392 | 0.33 | 0.535 | 0.559 | 0.545 | 0.681 | 0.536 | 1.23 | 1.14 | 1.09 | 0.977 | 1.08 | 0.194 | 0.226 | 0.192 | 0.203 | 0.211
NCI-H1651 | 0.488 | 0.539 | 0.516 | 0.498 | 0.55 | 0.462 | 0.729 | 0.616 | 0.614 | 0.593 | 0.762 | 0.843 | 0.877 | 0.826 | 0.806 |  | 1.06 | 0.987 | 0.884 | 0.968
NCI-H1666 | 0.655 | 0.665 | 0.677 | 0.657 | 0.621 | 0.459 | 0.517 | 0.603 | 0.55 | 0.429 | 0.912 | 1 | 1.05 | 1.04 | 1.01 | 0.867 |  | 1.01 | 0.839 | 0.86
NCI-H1734 | 0.364 | 0.375 | 0.37 | 0.34 | 0.323 | 0.433 | 0.518 | 0.522 | 0.452 | 0.423 | 0.815 | 0.896 | 0.966 |  | 0.752 | 0.855 | 0.962 | 1.35 | 1.09 | 0.911
NCI-H1755 | 0.423 | 0.46 | 0.49 | 0.459 | 0.468 | 0.371 | 0.481 | 0.472 | 0.454 | 0.451 | 0.891 | 0.897 | 0.959 | 0.981 | 0.936 | 0.992 | 1.02 | 1.04 | 0.93 | 
NCI-H1915 | 0.472 | 0.545 | 0.573 | 0.502 | 0.579 | 0.958 | 1.01 | 1.02 | 0.977 | 1.02 | 1.07 | 1.11 | 1.14 | 1.13 | 1.15 |  | 0.994 | 1 | 1.05 | 1.02
NCI-H1975 | 0.531 | 0.715 | 0.76 | 0.727 | 0.473 | 0.285 | 0.345 | 0.319 | 0.33 | 0.237 | 0.899 | 1.03 | 1.07 | 1.01 | 1.01 | 0.401 | 0.448 | 0.401 | 0.438 | 0.406
NCI-H1993 | 0.635 | 0.7 | 0.687 | 0.815 | 0.622 | 0.777 | 0.913 | 0.808 | 0.832 | 0.92 | 0.746 | 0.691 | 0.789 | 0.685 | 0.73 | 1.1 | 1.34 | 1.36 |  | 1.04
NCI-H2009 | 0.183 | 0.241 | 0.212 | 0.231 | 0.25 | 0.748 | 0.791 | 0.842 | 0.876 | 0.758 | 1.19 | 1.25 | 1.31 | 1.27 | 1.3 | 0.973 |  | 1.01 | 1.17 | 1.18
NCI-H2023 | 0.361 | 0.424 | 0.456 | 0.437 | 0.343 | 0.205 | 0.265 | 0.26 | 0.269 | 0.23 | 0.739 | 0.887 | 0.981 | 0.659 | 0.78 | 0.921 | 1.13 | 1.11 | 1.22 | 
NCI-H2085 | 0.454 | 0.5 | 0.472 | 0.494 | 0.494 | 0.431 | 0.476 | 0.519 | 0.519 | 0.555 | 0.851 |  | 1.02 | 0.957 | 0.935 | 1 | 1.05 |  | 1.16 | 1.07
NCI-H2087 | 0.27 | 0.266 | 0.25 | 0.28 | 0.255 | 0.957 | 0.831 | 1.04 | 0.879 | 0.799 | 1.12 | 1.28 | 1.15 | 1.07 | 1.11 | 0.855 | 0.793 | 0.966 | 0.994 | 1.04
NCI-H2126 | 0.341 | 0.36 | 0.37 | 0.338 | 0.359 | 0.465 | 0.55 | 0.517 | 0.563 | 0.502 | 1.13 | 1.31 | 1.34 | 1.47 | 1.31 | 1.07 | 1.19 | 1.16 | 1.15 | 1.13
NCI-H2228 | 0.829 | 0.942 | 1.15 | 1.16 | 0.693 | 0.536 | 0.445 | 0.299 | 0.454 | 0.216 | 0.844 | 0.833 | 0.963 | 0.842 | 0.657 | 1.04 | 1.14 | 1.22 | 1.15 | 1
NCI-H2347 | 0.454 | 0.43 | 0.453 | 0.422 | 0.472 | 0.554 | 0.91 | 0.691 | 0.705 | 0.912 | 0.704 | 0.708 | 1.03 |  | 1.36 | 0.853 | 1.21 | 1.1 |  | 1.11
NCI-H2405 | 0.495 | 0.581 | 0.546 | 0.494 | 0.587 | 0.382 | 0.49 | 0.502 | 0.524 | 0.474 | 1.07 | 1.06 | 1.09 | 1.05 | 1.11 | 0.997 | 0.924 | 1.09 | 1.08 | 1
